Data on one compound can be found in US20230218577A1, “USE OF HEAT SHOCK PROTEIN INHIBITORS FOR THE TREATMENT OF NEURODEVELOPMENTAL DISORDERS” (The Children's Medical Center Corporation, priority 2020, published 2023).

This assay deals with cilia (ACIII) in ctrl-sh hippocampal neurons. Put plainly: cilia^HCA in ctrl-sh neurons. Conditions: four-day dose curve between DIV9-13. The class given is cell-based, rat. The text has this:
To investigate how mTORC1 dysregulation due to neuronal TSC loss affected ciliation, High Content image-based Assays (HCAs) were developed for unbiased quantification of cilia and mTORC1 activity (hereafter cilia^HCA and mTORC1^HCA) in primary neurons. As an in vitro model of TSC, rat hippocampal neurons transduced with lentiviral vectors (LV) expressing a short hairpin RNA (shRNA) were used directed against either the Tsc2 (Tsc2-sh) or the luciferase gene as a control (ctrl-sh) tagged with GFP. […] Both the cilia^HCA and mTORC1^HCA were optimized as imaged-based assays, where cilia and mTORC1 activity was monitored by immunofluorescent staining of ACIII to identify cilia and pS6 as a proxy of mTORC1 activation (FIGS. 8C-F). Neurons were transduced in culture at day in vitro (DIV) 1, and cilia and mTORC1 activity were assessed in a time course experiment at DIV2, 5, 7, 13, and 20 (FIG. 2A). […] Reduced ciliation was validated by manual imaging and quantification of LV-infected neurons co-labeled with ACIII/centrin (FIGS. 8G-H). No changes in size or ACIII intensity were detected in the remaining cilia of the Tsc2-sh neurons (FIGS. 8I-J). […]

`C=CCNC1=C2C[C@@H](C)C[C@H](OC)[C@H](O)[C@@H](C)/C=C(\C)[C@H](OC(N)=O)[C@@H](OC)C=C/C=C(\C)C(=O)NC(=CC1=O)C2=O` [17-AGG, 3 S,5S,6R,7S,8E,10R,11S,12E,14E)-21-(allylamino)-6-hydroxy-5,11-dimethoxy-3,7,9,15-tetramethyl-16,20,22-trioxo-17-azabicyclo[16.3.1]docosa-8,12,14,18,21-pentaen-10-yl] carbamate]: the ciliation result is recorded as “did not increase”.
